Laboratory results published in patent publication US10717730B1, “Dihydroisoquinoline compound” (SUZHOU ARK BIOPHARMACEUTICAL CO., LTD., priority 2017, dated 2020).
Structures can show the parent of a compound that is named as a salt.

Test system: HBsAg
Test: HBsAg assay (secreted HBsAg by CLIA in HepG2.2.15 cells)
Assay type: cell-based, hepatitis B virus (HBV)
Details: Hepatitis B virus, HepG2.2.15, 96 h
Experimental: HepG2.2.15 cells (Sells et al, Proc Natl Acad Sci USA. 1987 February; 84(4):1005-9), a constitutively HBV-expressing cell line, were cultured in DMEM medium supplemented with 10% FBS and 400 μg/mL G418, and maintained in 5% CO2 at 37° C.
HepG2.2.15 cells were seeded into 96-well plates at 3×10^4 cells/well. The next day, the cells were treated with a five-fold serial dilution series of the compound in DMSO. The final DMSO concentration in all wells was 0.5% and 0.5% DMSO was used as no drug control. After four days of incubation with compounds, the supernatants were harvested and measured for HBsAg concentration
The HBsAg chemiluminescence immunoassay (CLIA) kit was used to measure the levels of secreted HBsAg. Specifically, 50 μL of culture supernatant was transferred to the CLIA assay plate and 50 μL of enzyme conjugate reagent was added into each well. The plates were sealed and incubated for 1 hour at room temperature. The supernatant-enzyme-mixture was discarded and wells were washed for 6 times. The residual liquid was removed by plating on tissue paper. 25 μL of substrate A and B were added into each well. Luminance was measured using a spectrometer (Tecan Infinite® F200) after 10 minutes incubation. IC50 value was extrapolated based the dose-response curves generated from the data.

COc1cc2c(cc1-c1cn[nH]c1)CC(C(C)C)n1cc(C(=O)O)c(=O)cc1-2 (centres unmarked) [Example 1, 6-isopropyl-10-methoxy-2-oxo-9-(1H-pyrazol-4-yl)-6,7-dihydro-2H-pyrido[2,1-a]isoquinoline-3-carboxylic acid] gave an IC50 of 0.014 µM.
COc1cc2c(cc1-c1cnn(CC(F)(F)F)c1)CC(C(C)C)n1cc(C(=O)O)c(=O)cc1-2 (centres unmarked) [Example 2, 6-isopropyl-10-methoxy-2-oxo-9-(1-(2,2,2-trifluoroethyl)-1H-pyrazol-4-yl)-6,7-dihydro-2H-pyrido[2,1-a]isoquinoline-3-carboxylic acid] was tested, and the IC50 was 0.008 µM.
COCCn1cc(-c2cc3c(cc2OC)-c2cc(=O)c(C(=O)O)cn2C(C(C)C)C3)cn1 (centres unmarked) [Example 3, 6-isopropyl-10-methoxy-9-(1-(2-methoxyethyl)-1H-pyrazol-4-yl)-2-oxo-6,7-dihydro-2H-pyrido[2,1-a]isoquinoline-3-carboxylic acid] was tested, and the IC50 was 0.018 µM.
COc1cc2c(cc1-c1cnn(CCCO)c1)CC(C(C)C)n1cc(C(=O)O)c(=O)cc1-2 (centres unmarked) [Example 4, 9-(1-(3-hydroxypropyl)-1H-pyrazol-4-yl)-6-isopropyl-10-methoxy-2-oxo-6,7-dihydro-2H-pyrido[2,1-a]isoquinoline-3-carboxxylic acid] was tested, and the IC50 was 0.024 µM.
COc1cc2c(cc1-c1cnn(CC(C)C)c1)CC(C(C)C)n1cc(C(=O)O)c(=O)cc1-2 (centres unmarked) [Example 5, 9-(1-isobutyl-1H-pyrazol-4-yl)-6-isopropyl-10-methoxy-2-oxo-6,7-dihydro-2H-pyrido[2,1-a]isoquinoline-3-carboxylic acid] gave an IC50 of 0.014 µM.
CCCn1cc(-c2cc3c(cc2OC)-c2cc(=O)c(C(=O)O)cn2C(C(C)C)C3)cn1 (centres unmarked) [Example 6, 6-isopropyl-10-methoxy-2-oxo-9-(1-propyl-1H-pyrazol-4-yl)-6,7-dihydro-2H-pyrido[2,1-a]isoquinoline-3-carboxylic acid] showed an IC50 of 0.006 µM.
For COc1cc2c(cc1-c1ccc(C)nc1)CC(C(C)C)n1cc(C(=O)O)c(=O)cc1-2 (centres unmarked) [Example 7, 6-isopropyl-10-methoxy-9-(6-methylpyridin-3-yl)-2-oxo-6,7-dihydro-2H-pyrido[2,1-a]isoquinoline-3-carboxylic acid], the IC50 was 0.036 µM.
COc1cc2c(cc1-c1cn[nH]c1)CC(C(C)(C)C)n1cc(C(=O)O)c(=O)cc1-2 (centres unmarked) [Example 8, 6-(tert-butyl)-10-methoxy-2-oxo-9-(1H-pyrazol-4-yl)-6,7-dihydro-2H-pyrido[2,1-a]isoquinoline-3-carboxylic acid] was tested, and the IC50 was 0.009 µM.
In the case of COc1cc2c(cc1-c1cnn(CCCO)c1)CC(C(C)(C)C)n1cc(C(=O)O)c(=O)cc1-2 (centres unmarked) [Example 9, 6-(tert-butyl)-9-(1-(3-hydroxypropyl)-1H-pyrazol-4-yl)-10-methoxy-2-oxo-6,7-dihydro-2H-pyrido[2,1-a]isoquinoline-3-carboxylic acid], the IC50 is reported as 0.29 µM.
Compound COc1cc2c(cc1-c1cnn(CC(F)(F)F)c1)CC(C(C)(C)C)n1cc(C(=O)O)c(=O)cc1-2 (centres unmarked) [Example 10, 6-(tert-butyl)-10-methoxy-2-oxo-9-(1-(2,2,2-trifluoroethyl)-1H-pyrazol-4-yl)-6,7-dihydro-2H-pyrido[2,1-a]isoquinoline-3-carboxylic acid] has an IC50 of 0.006 µM.
For COc1cc2c(cc1-c1cnn(C3COC3)c1)CC(C(C)(C)C)n1cc(C(=O)O)c(=O)cc1-2 (centres unmarked) [Example 11, 6-(tert-butyl)-10-methoxy-9-(1-(oxetan-3-yl)-1H-pyrazol-4-yl)-2-oxo-6,7-dihydro-2H-pyrido[2,1-a]isoquinoline-2-carboxylic acid], the IC50 was 0.003 µM.
For COc1cc2c(cc1-c1cnn(CC(C)O)c1)CC(C(C)(C)C)n1cc(C(=O)O)c(=O)cc1-2 (centres unmarked) [Example 12, 6-(tert-butyl)-9-(1-(2-hydroxypropyl)-1H-pyrazol-4-yl)-10-methoxy-2-oxo-6,7-dihydro-2H-pyrido[2,1-a]isoquinoline-3-carboxylic acid], the IC50 was 0.002 µM.
COc1cc2c(cc1-c1ccnn1C)CC(C(C)(C)C)n1cc(C(=O)O)c(=O)cc1-2 (centres unmarked) [Example 13, 6-(tert-butyl)-10-methoxy-9-(1-methyl-1H-pyrazol-5-yl)-2-oxo-6,7-dihydro-2H-pyrido[2,1-a]isoquinoline-3-carboxylic acid] showed an IC50 of 0.018 µM.
COc1cc2c(cc1-c1cnn(C(F)F)c1)CC(C(C)(C)C)n1cc(C(=O)O)c(=O)cc1-2 (centres unmarked) [Example 14, 6-(tert-butyl)-9-(1-(difluoromethyl)-1H-pyrazol-4-yl)-10-methoxy-2-oxo-6,7-dihydro-2H-pyrido[2,1-a]isoquinoline-3-carboxylic acid] was tested, and the IC50 was 0.002 µM.
For COc1cc2c(cc1-c1cc(C)nn1C)CC(C(C)(C)C)n1cc(C(=O)O)c(=O)cc1-2 (centres unmarked) [Example 15, 6-(tert-butyl)-9-(1,3-dimethyl-1H-pyrazol-5-yl)-10-methoxy-2-oxo-6,7-dihydro-2H-pyrido[2,1-a]isoquinoline-3-carboxylic acid], the IC50 was 0.004 µM.
Compound COc1cc2c(cc1-c1cnn(CCN3CCOCC3)c1)CC(C(C)(C)C)n1cc(C(=O)O)c(=O)cc1-2 (centres unmarked) [Example 16, 6-(tert-butyl)-10-methoxy-9-(1-(2-morpholinylethyl)-1H-pyrazol-4-yl)-2-oxo-6,7-dihydro-2H-pyrido[2,1-a]isoquinoline-3-carboxylaic acid] has an IC50 of 0.002 µM.
In the case of COc1cc2c(cc1-c1cnn(C3CCNCC3)c1)CC(C(C)(C)C)n1cc(C(=O)O)c(=O)cc1-2 (centres unmarked) [Example 17, 6-(tert-butyl)-10-methoxy-2-oxo-9-(1-(piperidin-4-yl)-1H-pyrazol-4-yl)-6,7-dihydro-2H-pyrido[2,1-a]isoquinoline-3-carboxylic acid hydrochloride], the IC50 is reported as 0.025 µM.
Compound CCOC(=O)CCn1cc(-c2cc3c(cc2OC)-c2cc(=O)c(C(=O)O)cn2C(C(C)(C)C)C3)cn1 (centres unmarked) [Example 23, 6-(tert-butyl)-9-(1-(3-ethoxy-3-oxopropyl)-1H-pyrazol-4-yl)-10-methoxy-2-oxo-6,7-dihydro-2H-pyrido[2,1-a]isoquinoline-3-carboxylic acid] has an IC50 of 0.04 µM.
In the case of COc1cc2c(cc1-c1cnn(C(C)C(=O)O)c1)CC(C(C)(C)C)n1cc(C(=O)O)c(=O)cc1-2 (centres unmarked) [Example 26, 6-(tert-butyl)-9-(1-(1-carboxyethyl)-1H-pyrazol-4-yl)-10-methoxy-2-oxo-6,7-dihydro-2H-pyrido[2,1-a]isoquinoline-3-carboxylic acid], the IC50 is reported as 0.008 µM.
COc1cc2c(cc1-c1cnn(C(C)(C)C(=O)O)c1)CC(C(C)(C)C)n1cc(C(=O)O)c(=O)cc1-2 (centres unmarked) [Example 27, 6-(tert-butyl)-9-(1-(2-carboxyprop-2-yl)-1H-pyrazol-4-yl)-10-methoxy-2-oxo-6,7-dihydro-2H-pyrido[2,1-a]isoquinoline-3-carboxylic acid] gave an IC50 of 0.004 µM.
COc1cc2c(cc1-c1nc[nH]n1)CC(C(C)(C)C)n1cc(C(=O)O)c(=O)cc1-2 (centres unmarked) [Example 29, 6-(tert-butyl)-10-methoxy-2-oxo-9-(1H-1,2,4-triazol-3-yl)-6,7-dihydro-2H-pyrido[2,1-a]isoquinoline-3-carboxylic acid] was tested, and the IC50 was 0.012 µM.
In the case of COc1cc2c(cc1-c1ncn(CC(=O)O)n1)CC(C(C)(C)C)n1cc(C(=O)O)c(=O)cc1-2 (centres unmarked) [Example 30, 6-(tert-butyl)-9-(1-(carboxymethyl)-1H-1,2,4-triazol-3-yl)-10-methoxy-2-oxo-6,7-dihydro-2H-pyrido[2,1-a]isoquinoline-3-carboxylic acid], the IC50 is reported as 0.013 µM.
In the case of COc1cc2c(cc1-c1ccccc1)CC(C(C)(C)C)n1cc(C(=O)O)c(=O)cc1-2 (centres unmarked) [Example 33, 6-(tert-butyl)-10-methoxy-2-oxo-9-phenyl-6,7-dihydro-2H-pyrido[2,1-a]isoquinoline-3-carboxylic acid], the IC50 is reported as 0.02 µM.
CCc1ccc(-c2cc3c(cc2OC)-c2cc(=O)c(C(=O)O)cn2C(C(C)(C)C)C3)cc1 (centres unmarked) [Example 34, 6-(tert-butyl)-9-(4-ethylphenyl)-10-methoxy-2-oxo-6,7-dihydro-2H-pyrido[2,1-a]isoquinoline-3-carboxylic acid] gave an IC50 of 0.036 µM.
For COc1ccc(-c2cc3c(cc2OC)-c2cc(=O)c(C(=O)O)cn2C(C(C)(C)C)C3)cc1 (centres unmarked) [Example 35, 6-(tert-butyl)-10-methoxy-9-(4-methoxyphenyl)-2-oxo-6,7-dihydro-2H-pyrido[2,1-a]isoquinoline-3-carboxylic acid], the IC50 was 0.29 µM.
For COc1cccc(-c2cc3c(cc2OC)-c2cc(=O)c(C(=O)O)cn2C(C(C)(C)C)C3)c1 (centres unmarked) [Example 36, 6-(tert-butyl)-10-methoxy-9-(3-methoxyphenyl)-2-oxo-6,7-dihydro-2H-pyrido[2,1-a]isoquinoline-3-carboxylic acid], the IC50 was 0.01 µM.
Compound COc1cc2c(cc1-c1ccnc(C)c1)CC(C(C)(C)C)n1cc(C(=O)O)c(=O)cc1-2 (centres unmarked) [Example 38, 6-(tert-butyl)-10-methoxy-9-(2-methylpyridin-4-yl)-2-oxo-6,7-dihydro-2H-pyrido[2,1-a]isoquinoline-3-carboxylic acid] has an IC50 of 0.005 µM.
In the case of COc1cc2c(cc1-c1cccnc1C)CC(C(C)(C)C)n1cc(C(=O)O)c(=O)cc1-2 (centres unmarked) [Example 39, 6-(tert-butyl)-10-methoxy-9-(2-methylpyridin-3-yl)-2-oxo-6,7-dihydro-2H-pyrido[2,1-a]isoquinoline-3-carboxylic acid], the IC50 is reported as 0.025 µM.
COc1cc2c(cc1-c1ccc(N3CCOCC3)nc1)CC(C(C)(C)C)n1cc(C(=O)O)c(=O)cc1-2 (centres unmarked) [Example 40, 6-(tert-butyl)-10-methoxy-9-(6-morpholinylpyridin-3-yl)-2-oxo-6,7-dihydro-2H-pyrido[2,1-a]isoquinoline-3-carboxylic acid] showed an IC50 of 0.006 µM.
